For three molecules, GI50 and TGI results are on record in PubChem BioAssay (NCI).

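Tested at 5 concentrations; 48 h exposure; 96-well plates; endpoints linearly interpolated, else capped at highest concentration. GI50 is the concentration that inhibits growth by half. At the TGI there is no net growth.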

What is called GI50 is the concentration at which growth is held to half of that of the control. One may read the TGI as the concentration at which net growth stops. Low values mean greater sensitivity of the cells, high ones lower sensitivity of the cells.

Common to all, as to test: DTP human tumour cell line panel, 48 h
Assay [1] deals with 786-0 renal.
The subject of assay [2] is COLO 205 colon.
Assay [3] concerns MDA-MB-435.
Assay [4] relates to MOLT-4 leukemia.
Assay [5] has as its system NCI-H522 lung.
In assay [6] the test system is OVCAR-8 ovarian.
Assay [7] relates to SF-295 CNS.
The test system of assay [8] is SNB-75 CNS.
Assay [9] deals with SR leukemia.
In assay [10] the test system is UACC-257 melanoma.

For `COc1cccc2c1C(=O)c1c(O)c3c(c(O)c1C2=O)C[C@@](O)(C(=O)COC(=O)c1cccnc1)C[C@@H]3OC1CC(N)C(O)C(C)O1` (stereo not given in full), the 50% growth inhibitory concentration (GI50) is 140 nM in [1]; 168 nM in assay [2]; 217 nM in assay [3]; 36.9 nM in assay [4]; 57.4 nM in assay [5]; 183 nM in assay [6]. Moreover, the GI50 in assay [7] was 148 nM; in [8] it was 84 nM; in assay [9] it was 17.3 nM; in [10], 172 nM. In addition, the TGI came to 1.25 µM in [1]; 1.01 µM in [2]; 1 µM in assay [3]; 0.684 µM in [4]; 0.217 µM in assay [5]; 4.85 µM in assay [6]. In addition, the TGI in assay [7] worked out at 2.29 µM; in [8], 0.534 µM; in assay [9] it was 2.4 µM; in assay [10], 0.557 µM.

With `COc1ccc(S(=O)(=O)N2CCCCC2)cc1NC(=O)c1[nH]c(C)c2c1CCCCC2=O`, the GI50 was 1060 nM in assay [1]; 1710 nM in [2]; 2490 nM in assay [3]; 4310 nM in assay [4]; 374 nM in assay [5]; 2190 nM in assay [6]. Moreover, the GI50 was 2520 nM in [7], 141 nM in assay [8], 762 nM in assay [9] and 853 nM in [10]. For the same molecule, the TGI was > 100 µM in [1]; 26.4 µM in assay [2]; > 100 µM in assay [3]; > 100 µM in [4]; 7.73 µM in [5]; 46.6 µM in assay [6]. Besides, the concentration for total growth inhibition (TGI) in assay [7] was > 100 µM; in assay [8], 3.46 µM; in assay [9], > 100 µM; in assay [10], 24.7 µM.

Turning to `C=C(C)[C@@H]1CC[C@]2(c3ncc(C)o3)CC[C@]3(C)[C@H](CC[C@@H]4[C@@](C)(CCC#N)[C@H](C(=C)C)CC[C@]43C)[C@@H]12`, the GI50 in [1] was 8230 nM; in assay [2] it was 5790 nM; in assay [3], 4870 nM; in [4] it was 2850 nM; in assay [5] it was 1900 nM; in assay [6] it was 6570 nM. Besides, the GI50 in assay [7] is 7220 nM; in assay [8], 2440 nM; in [9] it was 2750 nM; in [10], 9020 nM. In addition, the TGI in assay [1] amounted to 23.4 µM; in assay [2] it was 21.4 µM; in [3], 18 µM; in assay [4] it was 9.82 µM; in assay [5], 4.16 µM; in assay [6] it was 21.9 µM. For the same molecule, the total growth inhibition concentration (TGI) is 21.2 µM in [7], 16.6 µM in assay [8], > 100 µM in [9] and 24.4 µM in assay [10].
